From patent US10894811B2, “Peptide inhibitors of calcium channels” (The University of North Carolina at Chapel Hill, priority 2016, dated 2021)
“Also recorded” adds a separate entry of the source.

How the values were obtained:
[1] = tested on: hASMCs; assay: Calcium imaging using fura-2 (thapsigargin-induced Ca2+ signaling); type: cell-based, human; details: for ability to suppress Ca2+ signaling, SPLUNC1 mutants/peptides: ASMCs pre-incubated with truncated SPLUNC1 peptides (FIG. 4H); for thapsigargin (TG)-induced Ca2+ flux (peak fura-2 ratio change): human ASMCs, co-incubated 1 h
Description: Calcium imaging: Calcium imaging using fura-2 was adapted from a previous published protocol with minor modifications (Sheridan et al., J. Biol. Chem. 288:33509 (2013)). Briefly, hASMCs were loaded with 2 μM fura-2 AM (Invitrogen) and serosal media from HBEC cultures or recombinant SPLUNC1 at 37° C. for 1 h. Cultures were washed with a standard Ringer's solution (101 mM NaCl, 12 mM NaHCO3, 1.2 mM MgCl2, 1.2 mM CaCl2, […], 24 mM HEPES, 10 mM glucose, pH 7.4) or with Ca^2+-free Ringer's solution as indicated. Cultures were then placed in the Ringer's solution, and images were collected with a 40×1.4 NA oil objective on a Nikon Ti-S inverted microscope. Fura-2 fluorescence was acquired alternately at 340 and 380 nm (emission >450 nm) using LUDL filter wheels, obtained with an Orca FLASH 4.0 CMOS camera (Hammamatsu), and controlled with HCImageLive software. Cell bodies were identified as individual regions of interest (ROIs). Background subtraction was performed using a region without the cell. Signals were converted to relative changes (F/F0) where F0 was the ratio of the average fluorescent intensity (340/380) of ROIs at 0 time point. A total of 20 cells/coverslip were recorded. ΔF/F0 represents average peak fluorescent intensity changes of three independent experiments.

[2] = tested on: house dust mite-exposed mouse; assay: House dust mite allergy model, bronchoalveolar lavage cell counts; type: in vivo; details: SPLUNC1−/− mice, HDM challenge, day 17
Description: Nasal instillation of α6 peptides to mice: SPLUNC1^(−/−) mice were exposed to 2 μg house dust mite extract in 40 μl of PBS intranasally on days 0 and day 7. After this time, they were again challenged intranasally with 20 μg HDM in 40 μl of PBS from day 14 to day 16. We Then 320 μM of the short α6 peptide was added intranasally once per day on day 15 and on day 16 and the animals sacrificed on day 17. Bronchoalveolar lavage total and differential cell counts were performed using a Kwik-Diff™ Stain Kit (Thermo Scientific). After sacrificing the animals, blood was obtained by cardiac puncture and plasma was taken by spinning down whole blood. Serum HDM-specific antibody levels were measured using an enzyme-linked immunosorbent assay (ELISA). Briefly, plates were coated overnight with 0.01% HDM in PBS and blocked with 1% BSA in PBS before the addition of serum samples that had been diluted 1:10 in blocking buffer and standards for 1 h. Plates were washed 6× with PBS containing 0.05% Tween-20 before incubation with biotinylated anti-mouse IgE (Pharmingen) at a concentration of 2 μg/ml for 1 h. Plates were washed an additional six times, streptavidin-HRP (R&D Systems) was added for 30 min and the amount of bound HDM-specific antibody was determined using TMB substrate (Thermo Scientific). To test whether α6 peptides were efficacious in vivo, a well-characterized murine allergy model was used, the house dust mite-exposed mouse (Wu T et al., Nature Communications, 2017). Since SPLUNC1^(−/−) mice have asthma-like symptoms including spontaneous inflammation and airway hyperreactivity (Wu T et al., Nature Communications, 2017; Thaikoottathil et al., Am. J. Respir. Cell Mol. Biol. 47:253 (2012)), SPLUNC1^(−/−) mice were exposed to 20 μg HDM intranasally on day 0 and […]. After this time, they were challenged with 20 μg HDM intranasally from day 14 to day 17. […] of the short α6 peptide was administered intranasally once per day on day 15 and on day 16 and sacrificed the animals were sacrificed on day 17. Bronchoalveolar lavage was performed and total and differential cell counts performed (FIG. 15).

[3] = tested on: house dust mite-exposed mouse; assay: House dust mite allergy model, HDM-specific IgE by ELISA; type: in vivo; details: SPLUNC1−/− mice, HDM challenge; α6 peptide intranasally day 15 and day 16; serum on day 17
Description: Nasal instillation of α6 peptides to mice: SPLUNC1^(−/−) mice were exposed to 2 μg house dust mite extract in 40 μl of PBS intranasally on days 0 and day 7. After this time, they were again challenged intranasally with 20 μg HDM in 40 μl of PBS from day 14 to day 16. We Then 320 μM of the short α6 peptide was added intranasally once per day on day 15 and on day 16 and the animals sacrificed on day 17. Bronchoalveolar lavage total and differential cell counts were performed using a Kwik-Diff™ Stain Kit (Thermo Scientific). After sacrificing the animals, blood was obtained by cardiac puncture and plasma was taken by spinning down whole blood. Serum HDM-specific antibody levels were measured using an enzyme-linked immunosorbent assay (ELISA). Briefly, plates were coated overnight with 0.01% HDM in PBS and blocked with 1% BSA in PBS before the addition of serum samples that had been diluted 1:10 in blocking buffer and standards for 1 h. […] Plates were washed an additional six times, streptavidin-HRP (R&D Systems) was added for 30 min and the amount of bound HDM-specific antibody was determined using TMB substrate (Thermo Scientific). […] Using the same SPLUNC1^(−/−) mice/HDM challenge as described in FIG. 15, serum was obtained on day 17 and IgE measured by ELISA.

Molecule: S18: N-terminal S18 region of SPLUNC1, its ENaC regulatory domain; synthesized peptide (GGLPVPLDQTLPLNVNPA) [reference compound]
- ability to suppress Ca2+ signaling, SPLUNC1 mutants/peptides [1]: did not inhibit SOCE

Molecule: DITLVHDIVNMLIHGLQFVIKV (listed as Homo sapiens) [SEQ ID NO:2, amino acids 235-256 of human SPLUNC1]
- thapsigargin (TG)-induced Ca2+ flux (peak fura-2 ratio change) [1]: inhibited
- thapsigargin (TG)-induced Ca2+ flux (peak fura-2 ratio change) ([1]; listed as SPLUNC1 derived peptide): inhibits thapsigargin-induced Ca^2+ release

Molecule: DITLVHDIVNMLIHG (listed as Homo sapiens) [SEQ ID NO:3, amino acids 235-249 of human SPLUNC1]
- eosinophil influx (bronchoalveolar lavage) ([2]; peptide 320 μM / 320 μM intranasally once per day on day 15 and day 16): decreased
- bronchoalveolar lavage total cell count ([2]; peptide 320 μM / 320 μM intranasally once per day on day 15 and day 16, listed as short α6 peptide): significantly reduced
- bronchoalveolar lavage total cell count ([2]; peptide 320 μM / 320 μM intranasally once per day on day 15 and day 16, listed as α6 peptide): reduce inflammatory cell counts
- neutrophil influx (bronchoalveolar lavage) ([2]; peptide 320 mM / 320 μM intranasally once per day on day 15 and day 16): decreased
- plasma (serum) HDM-specific IgE levels [3]: significantly reduced; also recorded: reduce blood IgE levels

B1: mouse SPLUNC1: mouse SPLUNC1 protein (protein)
chain: QLAGLPLPLGQGPPLPLNQGPPLPLNQGQLLPLAQGLPLAVSPALPSNPTDLLAGKFTDALSGGLLSGGLLGILENIPLLDVIKSGGGNSNGLVGGLLGKLTSSVPLLNNILDIKITDPQLLELGLVQSPDGHRLYVTIPLGLTLNVNMPVVGSLLQLAVKLNITAEVLAVKDNQGRIHLVLGDCTHSPGSLKISLLNGVTPVQSFLDNLTGILTKVLPELIQGKVCPLVNGILSGLDVTLVHNIAELLIHGLQFVIKV
- ability to suppress Ca2+ signaling, SPLUNC1 mutants/peptides [1]: Inhibition was not different
